Experiments:
[1] = test system: tissue of the pancreatic islets of Langerhans; experiment: Insulin secretion from cultured tissue of the pancreatic islets of Langerhans (ELISA), as index of mitochondria-activating activity / ATP production; assay type: cell-based, rat; details: for insulin concentration (secretion amount of insulin from tissue of the islets of Langerhans) / insulin concentration, value in parentheses (control = 100): 0.1 μg/ml of each test substance in medium, culture for 1 hr; for insulin concentration (secretion amount of insulin from tissue of the islets of Langerhans): ELISA, control 43 ± 8; for insulin concentration, value in parentheses (control = 100): relative to control (100); for increase of the concentration of insulin in the medium: addition amount of 0.1 μg/ml, versus control
From the text: Therefore, a tissue of the pancreatic islets of Langerhans, which reacts with ATP to secrete insulin, was used to evaluate the mitochondria-activating activity of a test substance, with the insulin secretion as an index. As the tissue of the pancreatic islets of Langerhans, a culture kit (manufactured by Hokudo Co., Ltd) prepared from a rat was used. […] In the same manner as in Example 1, a tissue of the pancreatic islets of Langerhans was used to evaluate the mitochondria-activating activity of a test substance, with the insulin secretion as an index. As the tissue of the pancreatic islets of Langerhans, a culture kit (manufactured by Hokudo Co., Ltd) prepared from a rat was used.

rats = details: consecutive administration of 1200 mg/Kg/day for 52 weeks; cited from earlier work
kidney = details: reported in patent reference 5; narrow safety margin; cited from earlier work

Structure (SMILES) | insulin concentration (secretion amount of insulin from tissue of the islets of Langerhans) [1] [ng/mL] | insulin concentration, value in parentheses (control = 100) [1] | increase of the concentration of insulin in the medium [1] [fold] | toxic effect in chronic toxicity test (rats) | toxicity to kidney (kidney)
O=C(O)CC(O)(CC(=O)O)C(=O)O [citric acid] | 2030 ± 391 | 4720 | 47 | – | –
COC1=C(OC)C(=O)C(C/C=C(\C)CC/C=C(\C)CC/C=C(\C)CC/C=C(\C)CC/C=C(\C)CC/C=C(\C)CC/C=C(\C)CC/C=C(\C)CC/C=C(\C)CCC=C(C)C)=C(C)C1=O [coenzyme Q10] | – | – | – | absence of toxic effect | –
COC1=C(OC)C(=O)C(C/C=C(\C)CC/C=C(\C)CC/C=C(\C)CC/C=C(\C)CC/C=C(\C)CC/C=C(\C)CC/C=C(\C)CC/C=C(\C)CC/C=C(\C)CCC=C(C)C)=C(C)C1=O [oxidized coenzyme Q10, reference compound] | 329 ± 85 | 765 | 7.7 | – | –
O=C(O)c1cc(C(=O)O)c2c(n1)C(=O)C(=O)c1cc(C(=O)O)[nH]c1-2 [pyrroloquinoline quinone, 2,7,9-tricarboxy-1H-pyrrolo[2,3-f]quinoline-4,5-dione] | 220 ± 56 | 511 | 5.1 | – | strong toxicity to kidney
COc1c(O)c(C)c(C/C=C(\C)CC/C=C(\C)CC/C=C(\C)CC/C=C(\C)CC/C=C(\C)CC/C=C(\C)CC/C=C(\C)CC/C=C(\C)CC/C=C(\C)CCC=C(C)C)c(O)c1OC [reduced coenzyme Q10] | 360 ± 78 | 837 | 8.3 | – | –

From US20070259908A1, “Mitochondria Activators” (KANEKA CORPORATION, priority 2004, published 2007)
